Results reported in paper PMC4180209 (Arteriosclerosis, thrombosis, and vascular biology, 2014).
Where two headings read alike, the source gives them in different places. Values belong to the compound of their own block, whether it stands above or below them.

How the values were obtained:
[1] = system: human ADP-induced platelet aggregation; conditions: cited from earlier work
[2] = target: T1, αIIbβ3 (Homo sapiens, UniProt P05106+P08514); conditions: cited from earlier work
[3] = target: T2, platelet αIIbβ3 (Homo sapiens, UniProt P05106+P08514); conditions: cited from earlier work
T2 sequence (P08514 32-887 limits assumed): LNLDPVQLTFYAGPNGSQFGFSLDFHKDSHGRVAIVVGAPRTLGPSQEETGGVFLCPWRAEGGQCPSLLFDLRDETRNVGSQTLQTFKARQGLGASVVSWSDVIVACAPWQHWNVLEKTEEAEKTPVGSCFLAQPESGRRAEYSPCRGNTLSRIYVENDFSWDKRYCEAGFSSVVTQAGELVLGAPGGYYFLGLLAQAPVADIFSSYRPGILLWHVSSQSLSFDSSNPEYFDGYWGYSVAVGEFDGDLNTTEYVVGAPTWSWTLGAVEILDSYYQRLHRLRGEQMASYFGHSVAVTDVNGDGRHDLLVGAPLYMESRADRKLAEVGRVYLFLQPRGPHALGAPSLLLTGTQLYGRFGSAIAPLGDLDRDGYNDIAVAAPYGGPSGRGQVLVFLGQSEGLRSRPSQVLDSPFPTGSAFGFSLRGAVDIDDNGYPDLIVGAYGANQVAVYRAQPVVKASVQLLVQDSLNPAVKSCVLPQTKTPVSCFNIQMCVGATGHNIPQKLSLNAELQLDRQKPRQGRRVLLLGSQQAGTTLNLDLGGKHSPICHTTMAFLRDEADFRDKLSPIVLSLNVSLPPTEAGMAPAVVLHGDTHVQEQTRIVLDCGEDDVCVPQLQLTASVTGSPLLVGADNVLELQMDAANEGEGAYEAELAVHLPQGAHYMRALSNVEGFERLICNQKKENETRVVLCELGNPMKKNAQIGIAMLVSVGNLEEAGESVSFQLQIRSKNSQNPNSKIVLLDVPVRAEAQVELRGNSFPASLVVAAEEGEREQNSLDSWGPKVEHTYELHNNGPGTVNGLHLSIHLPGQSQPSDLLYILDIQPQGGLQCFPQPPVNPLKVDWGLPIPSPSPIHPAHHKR
T2 sequence (P08514 891-1039 partner limits assumed): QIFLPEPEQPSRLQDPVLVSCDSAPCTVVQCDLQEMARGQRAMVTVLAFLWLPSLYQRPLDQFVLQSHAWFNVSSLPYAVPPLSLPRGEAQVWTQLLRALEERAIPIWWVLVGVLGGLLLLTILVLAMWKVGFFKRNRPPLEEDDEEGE
T2 sequence (P05106 27-788): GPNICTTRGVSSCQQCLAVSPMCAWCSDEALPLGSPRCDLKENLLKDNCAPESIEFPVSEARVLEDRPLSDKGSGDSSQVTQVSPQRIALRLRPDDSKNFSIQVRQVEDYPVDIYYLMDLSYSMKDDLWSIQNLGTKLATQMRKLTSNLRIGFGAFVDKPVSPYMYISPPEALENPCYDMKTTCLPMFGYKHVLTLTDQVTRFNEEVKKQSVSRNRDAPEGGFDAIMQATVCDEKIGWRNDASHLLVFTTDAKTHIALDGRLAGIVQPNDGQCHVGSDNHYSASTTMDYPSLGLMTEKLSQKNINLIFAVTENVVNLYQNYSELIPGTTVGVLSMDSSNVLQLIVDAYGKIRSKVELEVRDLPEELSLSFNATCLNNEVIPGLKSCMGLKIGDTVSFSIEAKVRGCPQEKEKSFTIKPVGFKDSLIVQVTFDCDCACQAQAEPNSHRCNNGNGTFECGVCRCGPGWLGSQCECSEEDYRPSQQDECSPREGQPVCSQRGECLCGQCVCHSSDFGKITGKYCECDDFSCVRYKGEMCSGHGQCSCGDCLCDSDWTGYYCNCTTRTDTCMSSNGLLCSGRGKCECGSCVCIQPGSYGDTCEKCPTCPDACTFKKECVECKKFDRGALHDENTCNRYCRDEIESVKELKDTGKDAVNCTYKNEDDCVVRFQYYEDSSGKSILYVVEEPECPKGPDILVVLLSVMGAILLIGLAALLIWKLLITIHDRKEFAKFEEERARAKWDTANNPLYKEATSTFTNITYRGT

[4] = system: human ADP-induced platelet aggregation; experiment: ADP-induced platelet aggregation in platelet-rich plasma; assay type: cell-based; conditions: read-out: IC50 ADP-induced platelet aggregation; 5 µM ADP; citrated platelet-rich plasma; n=8
[5] = Solubility in aqueous buffer; assay type: physicochemical
[6] = target: T3, murine αIIbβ3 (Mus musculus, UniProt O54890+Q9QUM0); experiment: Reactivity with murine platelets / inhibition of murine αIIbβ3; assay type: cell-based
T3 sequence (Q9QUM0 32-1033): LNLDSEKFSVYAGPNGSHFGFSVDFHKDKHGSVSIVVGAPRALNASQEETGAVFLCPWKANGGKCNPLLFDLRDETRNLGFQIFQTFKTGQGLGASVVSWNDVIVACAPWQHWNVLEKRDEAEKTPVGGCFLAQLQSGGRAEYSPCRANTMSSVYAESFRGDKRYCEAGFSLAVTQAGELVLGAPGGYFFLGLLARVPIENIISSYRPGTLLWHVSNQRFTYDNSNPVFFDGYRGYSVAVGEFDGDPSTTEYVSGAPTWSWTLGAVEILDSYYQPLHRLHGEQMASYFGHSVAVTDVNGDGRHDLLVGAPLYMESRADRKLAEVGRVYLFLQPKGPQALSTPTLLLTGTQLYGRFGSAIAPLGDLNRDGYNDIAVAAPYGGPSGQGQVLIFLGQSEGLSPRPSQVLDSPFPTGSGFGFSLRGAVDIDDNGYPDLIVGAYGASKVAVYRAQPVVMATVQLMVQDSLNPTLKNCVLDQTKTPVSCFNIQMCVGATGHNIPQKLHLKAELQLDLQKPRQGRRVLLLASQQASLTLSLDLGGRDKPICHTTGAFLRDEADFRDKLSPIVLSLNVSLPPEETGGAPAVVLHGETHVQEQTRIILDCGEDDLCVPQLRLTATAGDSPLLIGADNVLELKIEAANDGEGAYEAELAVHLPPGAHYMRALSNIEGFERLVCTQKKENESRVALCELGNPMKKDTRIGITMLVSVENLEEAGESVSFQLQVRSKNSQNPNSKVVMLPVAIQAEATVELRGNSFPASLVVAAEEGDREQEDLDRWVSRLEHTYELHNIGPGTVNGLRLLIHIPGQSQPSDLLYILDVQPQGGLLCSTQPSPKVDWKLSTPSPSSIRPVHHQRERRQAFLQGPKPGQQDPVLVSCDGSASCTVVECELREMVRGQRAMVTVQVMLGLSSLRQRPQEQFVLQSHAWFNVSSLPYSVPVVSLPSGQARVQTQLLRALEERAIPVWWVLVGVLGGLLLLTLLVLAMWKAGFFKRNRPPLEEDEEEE
T3 sequence (O54890 26-787): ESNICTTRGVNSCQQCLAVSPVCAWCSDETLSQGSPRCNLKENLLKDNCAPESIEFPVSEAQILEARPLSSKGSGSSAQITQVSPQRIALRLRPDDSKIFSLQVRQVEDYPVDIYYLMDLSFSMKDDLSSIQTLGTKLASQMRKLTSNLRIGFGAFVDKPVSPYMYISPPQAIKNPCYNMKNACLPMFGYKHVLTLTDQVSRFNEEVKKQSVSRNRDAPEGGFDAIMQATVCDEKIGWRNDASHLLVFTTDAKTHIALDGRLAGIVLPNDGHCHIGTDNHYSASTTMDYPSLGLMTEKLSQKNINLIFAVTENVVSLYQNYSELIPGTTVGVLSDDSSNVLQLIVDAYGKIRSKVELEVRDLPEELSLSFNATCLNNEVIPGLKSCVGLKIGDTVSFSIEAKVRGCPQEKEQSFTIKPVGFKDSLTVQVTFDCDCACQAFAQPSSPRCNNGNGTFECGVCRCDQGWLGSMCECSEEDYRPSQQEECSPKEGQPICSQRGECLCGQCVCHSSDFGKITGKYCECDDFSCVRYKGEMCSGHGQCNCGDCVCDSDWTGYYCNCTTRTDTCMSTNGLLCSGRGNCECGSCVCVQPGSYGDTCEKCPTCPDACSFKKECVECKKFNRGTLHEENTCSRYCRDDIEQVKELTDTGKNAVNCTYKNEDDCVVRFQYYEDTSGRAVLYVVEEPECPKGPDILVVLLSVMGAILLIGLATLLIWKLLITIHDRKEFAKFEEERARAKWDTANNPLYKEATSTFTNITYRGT

[7] = target: T1, αIIbβ3; experiment: Adhesion of HEK293 cells expressing αIIbβ3 to fibrinogen; assay type: cell-based; conditions: for inhibition of binding of cells expressing αIIbβ3 to fibrinogen: HEK293 cells, RUC-2 100 µM, RUC-4 300 µM; for Specificity for αIIbβ3 vs αVβ3: αIIbβ3 cells to fibrinogen vs αVβ3 cells to vitronectin
[8] = target: αVβ3 (Homo sapiens, UniProt P05106+P06756); experiment: Adhesion of HEK293 cells expressing αVβ3 to vitronectin; assay type: cell-based; conditions: RUC-2 100 µM, RUC-4 300 µM
Sequence of αVβ3 (P06756 31-889 limits assumed): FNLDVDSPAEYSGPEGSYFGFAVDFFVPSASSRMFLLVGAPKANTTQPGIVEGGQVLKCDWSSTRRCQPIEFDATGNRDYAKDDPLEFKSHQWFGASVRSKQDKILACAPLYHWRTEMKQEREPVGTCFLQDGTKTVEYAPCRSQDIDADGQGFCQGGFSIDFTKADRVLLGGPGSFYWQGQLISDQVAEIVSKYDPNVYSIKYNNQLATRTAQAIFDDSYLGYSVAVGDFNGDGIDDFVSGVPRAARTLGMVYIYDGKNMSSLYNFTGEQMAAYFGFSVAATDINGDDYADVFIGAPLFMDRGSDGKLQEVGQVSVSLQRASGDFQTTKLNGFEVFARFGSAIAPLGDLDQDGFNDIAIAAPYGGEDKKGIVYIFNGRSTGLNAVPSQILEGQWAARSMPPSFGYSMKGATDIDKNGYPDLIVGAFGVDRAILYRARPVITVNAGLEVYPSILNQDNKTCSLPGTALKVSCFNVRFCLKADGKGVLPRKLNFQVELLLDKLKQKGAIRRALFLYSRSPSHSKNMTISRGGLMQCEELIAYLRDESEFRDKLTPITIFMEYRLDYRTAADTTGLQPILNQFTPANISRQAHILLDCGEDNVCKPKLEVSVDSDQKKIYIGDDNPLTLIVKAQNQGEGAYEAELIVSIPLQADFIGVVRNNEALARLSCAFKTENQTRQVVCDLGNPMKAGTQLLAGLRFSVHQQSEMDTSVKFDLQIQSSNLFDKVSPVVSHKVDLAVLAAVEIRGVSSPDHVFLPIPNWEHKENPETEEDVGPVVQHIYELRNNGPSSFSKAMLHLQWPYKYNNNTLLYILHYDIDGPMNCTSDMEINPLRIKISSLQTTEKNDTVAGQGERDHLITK
Sequence of αVβ3 (P06756 891-1048 partner limits assumed): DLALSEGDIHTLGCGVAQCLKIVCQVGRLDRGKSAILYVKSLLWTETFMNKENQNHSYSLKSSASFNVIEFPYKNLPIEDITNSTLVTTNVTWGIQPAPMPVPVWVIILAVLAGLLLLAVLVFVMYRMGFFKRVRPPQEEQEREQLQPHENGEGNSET
Sequence of αVβ3 (P05106 27-788): as the sequence (P05106 27-788) above

[9] = target: T1, αIIbβ3; experiment: Binding of ligand-induced binding site mAb AP5 to washed platelets; assay type: cell-based; conditions: for induction of increased binding of mAb AP5 (LIBS epitope in β3 PSI domain): eptifibatide 10 µM, RUC-2 100 µM, RUC-4 100 µM
[10] = target: T2, platelet αIIbβ3; experiment: Priming platelet αIIbβ3 to bind fibrinogen; assay type: cell-based
[11] = system: platelets of mice expressing hαIIb/mβ3; experiment: ADP-induced platelet aggregation after dosing of hαIIb/mβ3 mice; assay type: in vivo
[12] = Plasma concentrations in hαIIb/mβ3 mice; assay type: in vivo; conditions: exception of an outlier value
[13] = system: hαIIb/mβ3 mice; experiment: FeCl3 murine carotid artery thrombosis model; assay type: in vivo; conditions: for platelet counts: hαIIb/mβ3 mice
[14] = target: T3, murine αIIbβ3; conditions: 1 µM; cited from earlier work
[15] = system: ADP (20 µM)-induced platelet aggregation; experiment: ADP-induced platelet aggregation after IM administration to M. fascicularis; assay type: in vivo
[16] = system: human platelets; assay type: in vivo, mice; conditions: RUC-4 IV 1.5 mg/kg; laser injury, cremasteric arterioles; intravital microscopy
[17] = system: hαIIb/mβ3 platelets; conditions: read-out: IC50 for hαIIb/mβ3 platelets; data not shown, n=3
[18] = cited from earlier work
[19] = Clinical evaluation and platelet counts in M. fascicularis
[20] = RUC-2 0.39 mg/kg IP, 20 µM ADP, hαIIb/mβ3 mice
[21] = RUC-4 1.2 mg/kg IM, 20 µM ADP, hαIIb/mβ3 mice
[22] = IM 1.9 and 3.85 mg/kg, non-human primates

T1 sequence (P08514 32-887 limits assumed): as the sequence (P08514 32-887 limits assumed) above
T1 sequence (P08514 891-1039 partner limits assumed): as the sequence (P08514 891-1039 partner limits assumed) above
T1 sequence (P05106 27-788): as the sequence (P05106 27-788) above

Compound: CCc1nn2c(=O)cc(N3CCNCC3)nc2s1 [RUC-1]
IC50 [1]: 13 µM
conformational changes in β3 detectable by a conformation-specific monoclonal antibody or by electron microscopy [2]: nor did they induce conformational changes in β3
priming of the receptor to bind the ligand fibrinogen [3]: neither RUC-1 nor RUC-2 primed the receptor

IC50 [4]: 0.095 ± 0.02 µM
Solubility in aqueous buffer at pH 7.4 [5]: 0.068–0.092 mg/ml
Reactivity with murine platelets [6]: No
Specificity for αIIbβ3 vs αVβ3 [7]: Yes
inhibition of binding of cells expressing αVβ3 to vitronectin [8]: inability to inhibit
Ability to Induce conformational changes in αIIbβ3 identifiable by LIBS mAb [9]: No
induction of increased binding of mAb AP5 (LIBS epitope in β3 PSI domain) [9]: did not induce increased binding
Ability to prime αIIbβ3 to bind fibrinogen [10]: No
time to maximum plasma concentration ([12]; RUC-2 IP): 15 min
platelet counts ([13]; RUC-2 3.85 mg/kg IP): 677±132 × 10^3 platelets per µl
Compound: NCC(=O)Nc1cccc(-c2nn3c(=O)cc(N4CCNCC4)nc3s2)c1 [RUC-2]
inhibition of binding of cells expressing αIIbβ3 to fibrinogen [7]: inhibiting the binding of cells expressing αIIbβ3 to fibrinogen
time at which return of the aggregation response begins [11, 20]: 45 min
time to complete inhibition of platelet aggregation [11, 20]: ≤ 15 min
time to complete inhibition of platelet aggregation ([11]; RUC-2 3.85 mg/kg IP, 20 µM ADP, hαIIb/mβ3 mice): ≤ 15 min
platelet aggregation at the 45 minute time point ([11]; RUC-2 3.85 mg/kg IP): complete inhibition of platelet aggregation in all animals
mice protected from vaso-occlusion ([13]; RUC-2 3.85 mg/kg IP, 20% FeCl3 for 3 minutes, 20 minutes after dosing): 8/8
IC50 [1]: ~0.09 µM
fold more potent than RUC-1 [1]: ~ 100 fold
inhibition of murine αIIbβ3 [14]: does not inhibit
conformational changes in β3 detectable by a conformation-specific monoclonal antibody or by electron microscopy [2]: nor did they induce conformational changes in β3
priming of the receptor to bind the ligand fibrinogen [3]: neither RUC-1 nor RUC-2 primed the receptor

Compound: NCC(=O)Nc1cncc(-c2nn3c(=O)cc(N4CCNCC4)nc3s2)c1 [RUC-4]
IC50 [4]: 0.057 ± 0.01 µM
fold more soluble than RUC-2 in aqueous buffer at neutral pH ([5]; neutral pH): more than 500 fold
Solubility in aqueous buffer at pH 7.4 [5]: 60–80 mg/ml
Reactivity with murine platelets [6]: No
inhibition of murine αIIbβ3 ([6]; data not shown): shares this property
inhibition of binding of cells expressing αIIbβ3 to fibrinogen [7]: inhibiting the binding of cells expressing αIIbβ3 to fibrinogen
Specificity for αIIbβ3 vs αVβ3 [7]: Yes
inhibition of binding of cells expressing αVβ3 to vitronectin [8]: inability to inhibit
Ability to Induce conformational changes in αIIbβ3 identifiable by LIBS mAb [9]: No
induction of increased binding of mAb AP5 (LIBS epitope in β3 PSI domain) [9]: did not induce increased binding
Ability to prime αIIbβ3 to bind fibrinogen [10]: No
time of complete inhibition of platelet aggregation [11, 21]: 5 min
time of partial return of aggregation [11, 21]: 4 h
platelet aggregation at the 45 minute time point ([11]; RUC-4 1.2 mg/kg IM): complete inhibition of platelet aggregation in all animals
time to maximum plasma concentration ([12]; RUC-4 IM): 5 min
time at which return toward normal aggregation is evident ([15]; 1.0 mg/kg IM, 20 µM ADP): 2 h
inhibition of aggregation at 15 minutes ([15]; 1.0 mg/kg IM, 15 minutes): partial
time at which aggregation response began to return to normal ([15]; 1.93 mg/kg IM, 20 µM ADP): ≤ 4.5 h
time to complete inhibition of aggregation ([15]; 1.93 mg/kg IM, 20 µM ADP): ≤ 15 min
time to complete inhibition of aggregation ([15]; 3.86 mg/kg IM, 20 µM ADP): ≤ 15 min
dose-dependent return of platelet aggregation after [15, 22]: 4.5 to 24 h
time to complete inhibition of platelet aggregation [15, 22]: ≤ 15 min
mice developing occlusion during the experiment ([13]; RUC-4 1.2 mg/kg IM, 20% FeCl3 for 3 minutes, 20 minutes after dosing): 2/11
platelet counts ([13]; RUC-4 1.2 mg/kg IM): 674±176 × 10^3 platelets per µl
decrease in thrombus formation [16]: > 80%
IC50 [17]: ~0.01 µM
fold more soluble than RUC-2 [18]: more than 500 fold
bleeding observation ([19]; 3.85 mg/kg IM): Transient gum bleeding
clinical evaluation (tolerability) ([19]; IM 3.86, 1.93 and 1.0 mg/kg): well tolerated
platelet counts throughout the 24 hour period ([19]; IM 3.86, 1.93 and 1.0 mg/kg, 24 hour): remained stable

Compound: CCCCS(=O)(=O)N[C@@H](Cc1ccc(OCCCCC2CCNCC2)cc1)C(=O)O [tirofiban, reference compound]
priming of the receptor to bind the ligand fibrinogen [3]: unlike eptifibatide and tirofiban, neither RUC-1 nor RUC-2 primed the receptor

Compound: eptifibatide [reference compound]
fold higher affinity for αIIbβ3 than RUC-4 as judged by IC50 for platelet aggregation [1]: more than 4 fold
priming of the receptor to bind the ligand fibrinogen [3]: unlike eptifibatide and tirofiban, neither RUC-1 nor RUC-2 primed the receptor
